Measured values as given in patent US20220395500A1, “SMALL MOLECULE ACTIVATORS OF INTERFERON REGULATORY FACTOR 3 AND METHODS OF USE THEREOF” (Neuralexo, Inc., priority 2020, published 2022).

How the values were obtained:
[1] = THP1-Dual cytotoxicity (Cell Titer Glo, ATP); assay type: cell-based, human; settings: human, THP1-Dual cells
Outline: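 Human THP1-Dual cells were treated across an 8-point dose-response range. Cytotoxicity was measured in-plate by CellTiter-Glo luminescence, which quantifies ATP as a marker of metabolically active cells, and CC50 was taken as the 50% cytotoxic concentration.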

[2] = test system: IRF-Lucia luciferase reporter (ISRE) in THP1-Dual cells; experiment: THP1-Dual IRF-Lucia luciferase reporter assay (ISRE activation); assay type: cell-based, human; settings: THP1-Dual
Outline: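 THP1-Dual cells were differentiated with 5 ng/mL PMA for 48 h at 37° C, washed, then treated with compounds at 10 μM final for 24 h; LPS at 313 ng/mL served as control. ISRE-driven Lucia luciferase in supernatant was read by luminescence.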

[3] = test system: IRF-Lucia luciferase reporter (ISRE) in J774-Dual cells; experiment: J774-Dual IRF-Lucia luciferase reporter assay (ISRE activation); assay type: cell-based, mouse; settings: J774-Dual
Outline: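 Mouse J774-Dual macrophages, seeded in growth medium 24 h at 37 °C, 5% CO2 before treatment; secreted IRF-Lucia (ISRE-driven) and NF-κB-SEAP read with QUANTI-Luc and QUANTI-Blue. EC50 and CC50 from 8-point dose-response, cytotoxicity by CellTiter-Glo; ISRE:NF-κB ratio calculated.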

SH-SY5Y cells = experiment: Gene induction in SH-SY5Y cells (qtPCR); assay type: cell-based, human; settings: 20 μM, 3 hours, preliminary results
Procedure: FIG. 11 is a bar graph showing that the human-specific IRF activator AV-C induces robust IFIT1 and RSAD2 expression, with no increase in TNF expression. SH-SY5Y cells were treated with 20 μM AV-C for 3 hours. RNA was collected from cell pellets and qtPCR was performed with indicated primers. Values at FIG. 11 are normalized to actin and presented as fold change over vehicle control.
To determine if the human specific IRF activator, AV-C could induce IRF activated genes, the human neuroblastoma cell line SH-SY5Y was stimulated with 20 μM AV-C for 3 hours. […] Specifically, as mentioned, SH-SY5Y cells were treated with 20 μM AV-C for 3 hours. RNA was collected from cell pellets and qtPCR was performed with indicated primers. Values at FIG. 11 are normalized to actin and presented as fold change over vehicle control.

Work on CC(C)c1nnc(N2C(=O)c3oc4ccccc4c(=O)c3C2c2ccccc2F)s1 (stereo not drawn) [AV-C, 1-(2-fluorophenyl)-2-(5-isopropyl-1,3,4-thiadiazol-2-yl)-1,2-dihydrochromeno[2,3-c]pyrrole-3,9-dione, reference compound] yielded a CC50 ([1]; THP1-Dual control compound, 8-point dose response, read-out: CC50) of 7.9 µM, a selectivity ratio ([1]; read-out: Selectivity Index (CC50/EC50) (text: toxicity index)) of 1.5 and an EC50 ([2]; Homo sapiens, THP1-Dual control compound, 8-point dose response, read-out: EC50 ISRE activation) of 5.3 µM. For the same compound, the “ISRE response, % of LPS maximum” value ([2]; 25 μM) was 75%, the “IRF signal intensity relative to LPS control” value ([2]; at its EC50) was about 10% and the “IRF activation in mouse cells” value [3] was “minimal IRF activation”. The “ISRE response, % of LPS maximum” value ([3]; 25 μM) was 10%, the “IFIT1 and RSAD2 expression” value (SH-SY5Y cells) was “increased” and the TNF expression (SH-SY5Y cells) was “no increase”.
